Laboratory results: patent publication US12084680B2, “Methods for efficient derivation of human motor neurons from diverse spinal regions” (Wisconsin Alumni Research Foundation, priority 2016, dated 2024)

Experiments:
GLI1, GLI2, GLI3 = assay: qPCR of GLI transcription factors in day 6 cultures; format: cell-based, human; conditions: 6 μM CHIR maintained during RA and PM/SHH exposure, day 6, versus 0 μM CHIR
Protocol: To begin, we sequentially differentiated H9 hESCs in E6 media for 1 day, and FGF8b (200 ng/mL) for 1 day, and FGF8b and CHIR (3 μM) for 2 days to generate cervical neuromesoderm (FIGS. 5A-5B). Then, we screened the effects of CHIR, PM, and SHH treatment on NKX6.1^+/PAX6^+/OLIG2^+ motor neuron progenitor induction while transitioning to media containing 1 μM RA (FIGS. 5A-5D). Prior to the addition of RA, NKX6.1 was expressed in the cervical neuromesodermal state at day 4 (80±18% NKX6.1^+; data not shown), likely due to the CHIR-induced Wnt/β-catenin signaling (FIGS. 4A-4H). Transitioning the neuromesodermal progenitors to RA-containing media for 2 days induced HOXB4^+/HOXC6^+/HOXC9^−/HOXD10^−/PAX6^+ cervical neuroectoderm in all conditions (FIGS. 5B-5C), as expected. However, without co-activation of SHH signaling by PM or SHH, NKX6.1 expression was quickly lost by day 6 (97±1% PAX6^+, 17±3% NKX6.1^+) (FIG. 5C). […] To bolster this claim, we also analyzed the abundance of full-length GLI3 versus its truncated repressor form by western blot. […] Thus, Wnt/β-catenin signaling is necessary to induce ventral identity, but its continuous activation during OLIG2 induction by SHH signaling is detrimental to motor neuron differentiation, possibly due to activation of the GLI3 repressor.
Thoracic identity was reached after an additional 24 h. Then, to reach the lumbosacral level, cells were given 30 ng/ml GDF11 and 1 μM DM for an additional 48 h. For neuroectoderm induction and generation of OLIG2^+ progenitors, FGF8b was removed at the designated time points and the concentration of CHIR was increased for 6 h as described in the text, followed by a transition to media containing RA, PM, and SHH for a period of 48 h. […]

H9 ishcat2 hESC line = assay: Doxycycline-inducible shRNA knockdown of β-catenin (CTNNB1) during motor neuron differentiation; format: cell-based, human; conditions: H9 ishcat2, 3 days shRNA CTNNB1 knockdown upstream of CHIR 4 μM, day 3
Protocol: In the ventral neural tube, SHH signaling generates OLIG2^+ motor neuron progenitors that subsequently mature into post-mitotic ISL1^+ and/or HB9^+ motor neurons. To probe the role of Wnt/β-catenin signaling during this process in vitro, we utilized the H9 ishcat2 hESC line, which harbors a doxycycline-inducible shRNA against CTNNB1.
Similarly, we induced β-catenin knockdown while differentiating the hESCs into motor neurons via E6 neural induction with RA (1 μM), purmorphamine (PM, a small molecule agonist of sonic hedgehog signaling; 100 nM), and neurotrophic factor treatment, as previously described (FIG. 3A).
NKX6.1 is the earliest expressed marker in the motor neuron development cascade in vivo, so we examined its expression in response to Wnt/β-catenin, RA, and SHH signaling during hPSC motor neuron differentiation. H9 hESCs were differentiated in E6 medium for 2 days to initiate neural fate acquisition34 and then treated with combinations of RA, purmorphamine (PM, a small molecule agonist of SHH signaling), and CHIR for 24 h (FIG. 4A). […] Using the H9 ishcat2 line, we observed that CHIR-mediated induction of NKX6.1 was β-catenin-dependent, as the optimal 3 days of shRNA-mediated CTNNB1 knockdown upstream of CHIR treatment was required to maximally reduce NKX6.1 induction to 44±1% (FIG. 4E). The correlation between NKX6.1 knockdown and days of doxycycline treatment was presumably due to the time delay for shRNA synthesis and subsequent gene knockdown in Tet-on systems. […] Exogenously added WNT3A (200 ng/mL) could also induce NKX6.1 expression (60±14%) (FIG. 4G), providing further evidence for the involvement of Wnt/β-catenin signaling in this process. In contrast, simultaneous treatment with CHIR and BMP4 (200 ng/mL), a dorsal patterning factor, reduced the expression of NKX6.1 from 91±1% to 68±2% (FIG. 4H).
hESCs were maintained on Matrigel (BD Biosciences) in E8 medium but with 10-fold lower insulin concentration (2 mg/L). Cell lines used in this study were H9 hESCs (passage 25-45) and H9 ishcat2 hESCs (passage 35-45). […]

## Cc1c[nH]c(-c2cnc(NCCNc3ccc(C#N)cn3)nc2-c2ccc(Cl)cc2Cl)n1 [CHIR, CHIR99021]
GLI1, GLI2, GLI3
  decrease in GLI1 expression (qPCR): > 8 fold
  decrease in GLI2 expression (qPCR): > 4 fold
  increase in GLI3 expression (qPCR): ~2 fold
H9 ishcat2 hESC line
  NKX6.1 induction (flow cytometry): 44±1%
